According to PMC7731314, “Tropinone-Derived Alkaloids as Potent Anticancer Agents: Synthesis, Tyrosinase Inhibition, Mechanism of Action, DFT Calculation, and Molecular Docking Studies” (International Journal of Molecular Sciences, 2020):
Where two headings read alike, the source gives them in different places.

Key:
[1] = test system: human multiple myeloma (RPMI 8226) cell line; assay: MTT cell proliferation assay, RPMI 8226; type: cell-based; settings: antiproliferative, 96 h, read-out: IC50 ± SD RPMI 8226
Procedure: The influence of the tested compounds on the proliferation of RPMI 8226 and A549 cells was estimated with the MTT assay as described previously. Briefly, 1 × 10^4 cells/mL (RPMI 8226) or 0.2 × 10^4 (A549) cells per well were seeded into 96-well plates and cultured (in growth medium containing 10% FBS) with different concentrations of each compound ranging from 3.125 to 100 μM. The control cells were treated with the vehicle DMSO (0.1%).

A549 cells = type: cell-based, human
Procedure: (§1) The RPMI 8226 or A549 cells were seeded in 6-well plates in medium containing 10% FBS without or with compound 3a (2.5, 5, 10, 20, or 40 µM). After 24-h and 48-h treatment, the cell cycle analysis was performed by determination of the DNA contents on the basis of PI staining as described previously. Briefly, the cells were harvested, washed with PBS, and fixed overnight with 80% ethanol at −20 °C. After that, the cells were washed with PBS and stained with PI using PI/RNase Staining Buffer (BD Biosciences, BD Pharmingen™, USA) for 30 min in darkness at RT. Next, the stained cells were analyzed using FACS Calibur. The intensity of PI fluorescence of individual nuclei was determined and at least 10 000 events were measured within an acquisition rate >60 events/s. The FACS data were analyzed using Cell Quest Pro Version 6.0 (BD Biosciences, San Jose, CA, USA). for the Macintosh operating system. The data were analyzed to determine the percentage of cells at the sub-G1 phase (apoptotic cells) and each phase of the cell cycle (G1, S, and G2/M).

RPMI 8226 cells = type: cell-based, human; settings: RPMI 8226, 2.5 µM
Procedure: as §1

CN1C2CCC1CC(=NNc1nc(-c3ccc(I)cc3)cs1)C2 [Compound 3a, 4-(4-Iodophenyl)-2-(2-(8-methyl-8-azabicyclo[3.2.1]octan-3-ylidene)hydrazinyl)thiazole] was tested, and the IC50 [1] was 9.32 ± 0.71 µM, the “Cell cycle distribution G0/G1” value (A549 cells; A549, 2.5 µM, 24 h) was 64.49±1.89 % of cells and the “Cell cycle distribution G2/M” value (A549 cells; A549, 2.5 µM, 24 h) was 14.68±2.11 % of cells. For the same compound, the “Cell cycle distribution S” value (A549 cells; A549, 2.5 µM, 24 h) was 12.39±2.34 % of cells, the “Cell cycle distribution sub-G1” value (A549 cells; A549, 2.5 µM, 24 h) was 8.81±3.73 % of cells and the “Cell cycle distribution G0/G1” value (A549 cells; A549, 2.5 µM, 48 h) was 73.22±1.97 % of cells. For the same compound, the “Cell cycle distribution G2/M” value (A549 cells; A549, 2.5 µM, 48 h) was 8.91±2.22 % of cells, the “Cell cycle distribution S” value (A549 cells; A549, 2.5 µM, 48 h) was 6.07±1.54 % of cells and the “Cell cycle distribution sub-G1” value (A549 cells; A549, 2.5 µM, 48 h) was 11.98±3.62 % of cells. The “Cell cycle distribution G0/G1” value (A549 cells; A549, 5 µM, 24 h) was 65.90±2.36 % of cells, the “Cell cycle distribution G2/M” value (A549 cells; A549, 5 µM, 24 h) was 13.62±2.25 % of cells and the “Cell cycle distribution S” value (A549 cells; A549, 5 µM, 24 h) was 12.18±2.45 % of cells. The “Cell cycle distribution sub-G1” value (A549 cells; A549, 5 µM, 24 h) was 8.94±3.39 % of cells, the “Cell cycle distribution G0/G1” value (A549 cells; A549, 5 µM, 48 h) was 68.55±8.03 % of cells and the “Cell cycle distribution G2/M” value (A549 cells; A549, 5 µM, 48 h) was 9.05±1.72 % of cells. For the same compound, the “Cell cycle distribution S” value (A549 cells; A549, 5 µM, 48 h) was 6.81±2.66 % of cells, the “Cell cycle distribution sub-G1” value (A549 cells; A549, 5 µM, 48 h) was 15.74±6.03 % of cells and the “Cell cycle distribution G0/G1” value (A549 cells; A549, 10 µM, 24 h) was 66.51±4.46 % of cells. For the same compound, the “Cell cycle distribution G2/M” value (A549 cells; A549, 10 µM, 24 h) was 11.43±2.88 % of cells, the “Cell cycle distribution S” value (A549 cells; A549, 10 µM, 24 h) was 9.82±2.73 % of cells and the “Cell cycle distribution sub-G1” value (A549 cells; A549, 10 µM, 24 h) was 13.23±7.01 % of cells. For the same compound, the “Cell cycle distribution G0/G1” value (A549 cells; A549, 10 µM, 48 h) was 68.54±6.87 % of cells, the “Cell cycle distribution G2/M” value (A549 cells; A549, 10 µM, 48 h) was 8.44±1.47 % of cells and the “Cell cycle distribution S” value (A549 cells; A549, 10 µM, 48 h) was 7.07±2.63 % of cells. For the same compound, the “Cell cycle distribution sub-G1” value (A549 cells; A549, 10 µM, 48 h) was 16.15±6.33 % of cells, the “Cell cycle distribution G0/G1” value (A549 cells; A549, 20 µM, 24 h) was 66.45±9.20 % of cells and the “Cell cycle distribution G2/M” value (A549 cells; A549, 20 µM, 24 h) was 7.16±2.15 % of cells. For the same compound, the “Cell cycle distribution S” value (A549 cells; A549, 20 µM, 24 h) was 5.23±2.38 % of cells, the “Cell cycle distribution sub-G1” value (A549 cells; A549, 20 µM, 24 h) was 22.36±12.24 % of cells and the “Cell cycle distribution G0/G1” value (A549 cells; A549, 20 µM, 48 h) was 63.07±6.59 % of cells. For the same compound, the “Cell cycle distribution G2/M” value (A549 cells; A549, 20 µM, 48 h) was 5.19±0.93 % of cells, the “Cell cycle distribution S” value (A549 cells; A549, 20 µM, 48 h) was 4.61±1.21 % of cells and the “Cell cycle distribution sub-G1” value (A549 cells; A549, 20 µM, 48 h) was 27.32±6.78 % of cells. The “Cell cycle distribution G0/G1” value (A549 cells; A549, 40 µM, 24 h) was 41.03±2.93 % of cells, the “Cell cycle distribution G2/M” value (A549 cells; A549, 40 µM, 24 h) was 12.87±5.29 % of cells and the “Cell cycle distribution S” value (A549 cells; A549, 40 µM, 24 h) was 11.34±0.58 % of cells. The “Cell cycle distribution sub-G1” value (A549 cells; A549, 40 µM, 24 h) was 35.46±9.33 % of cells, the “Cell cycle distribution G0/G1” value (A549 cells; A549, 40 µM, 48 h) was 16.49±3.46 % of cells and the “Cell cycle distribution G2/M” value (A549 cells; A549, 40 µM, 48 h) was 2.19±0.38 % of cells. For the same compound, the “Cell cycle distribution S” value (A549 cells; A549, 40 µM, 48 h) was 6.05±0.87 % of cells, the “Cell cycle distribution sub-G1” value (A549 cells; A549, 40 µM, 48 h) was 75.27±4.12 % of cells and the “Cell cycle distribution G0/G1” value (RPMI 8226 cells; 24 h) was 41.14±1.03 % of cells. The “Cell cycle distribution G2” value (RPMI 8226 cells; 24 h) was 22.35±1.19 % of cells, the “Cell cycle distribution S” value (RPMI 8226 cells; 24 h) was 21.59±1.77 % of cells and the “Cell cycle distribution Sub-G1” value (RPMI 8226 cells; 24 h) was 15.53±2.23 % of cells. For the same compound, the “Cell cycle distribution G0/G1” value (RPMI 8226 cells; 48 h) was 35.8±1.49 % of cells, the “Cell cycle distribution G2” value (RPMI 8226 cells; 48 h) was 16.99±2 % of cells and the “Cell cycle distribution S” value (RPMI 8226 cells; 48 h) was 26.22±0.97 % of cells.
